Converted amounts (≈) assume the structure as drawn. The source made the active and inactive calls. The rule behind the calls is not given here. Where a SMILES comes first, the peptide text is derived from it. [ ]: non-standard residue; d: D form. NMePhe(4-Br) = CN[C@@H](Cc1ccc(Br)cc1)C(=O)O; Phe(4-Br) = N[C@@H](Cc1ccc(Br)cc1)C(=O)O; NMeF = CN[C@@H](Cc1ccccc1)C(=O)O; Hica(2S) = CC(C)C[C@H](O)C(=O)O; NMeL = CN[C@@H](CC(C)C)C(=O)O; NMeV = CN[C@H](C(=O)O)C(C)C
Columns and labels:
WM-115 [1] = assay: Potency against human WM-115 cells; exhibited average potency; type: functional, cell-based
MDA-MB-231 [2] = assay: Effect of N-methylation in MDA-MB-231 human […] cancer cells; exibit less potency; type: functional, cell-based
PC-3 [3] = assay: Effect of N-methylation in PC-3 human prostate cancer cells; exhibited lowest activity; type: functional, cell-based
MDA-MB-231 [4] = assay: Inhibitory activity against MDA-MB-231 cells; exhibited moderate activity; type: functional, cell-based; details: Homo sapiens
[5] = Mean inhibitory concentration against cancer cell lines; type: functional, cell-based, Homo sapiens
PC-3 [6] = assay: Effect of N-methylation in PC-3 human prostate cancer cells; type: functional, cell-based
WM-115 [7] = assay: Concentration at which the compound exibit good activity WM-115 human melanoma cells; type: functional, cell-based
Cancer cell lines [8] = assay: Inhibitory activity against AsPC-1 human pancreatic cancer cells; demonstarted good activity; type: functional, cell-based
Cancer cell lines [9] = assay: Inhibitory activity against S2-013 human pancreatic cancer cells; demonstarted good activity; type: functional, cell-based
MDA-MB-231 [10] = assay: Inhibitory activity against MDA-MB-231 human […] cancer cells; demonstarted good activity; type: functional, cell-based
PC-3 [11] = assay: Inhibitory activity against PC-3 human prostate cancer cells; demonstarted good activity; type: functional, cell-based
PC-3 [12] = assay: Effect of N-methylation in PC-3 human prostate cancer cells; exhibited more potency; type: functional, cell-based
MDA-MB-231 [13] = assay: Effect of N-methylation in MDA-MB-231 human […] cancer cells; exibit high potency; type: functional, cell-based
PC-3 [14] = assay: Concentration at which the compound exibit more potency against PC-3 human prostate cancer cells; type: functional, cell-based
Cancer cell lines [15] = assay: Concentration at which the compound exibit more potency agains AsPC-1 human pancreatic cancer cells; type: functional, cell-based
MDA-MB-231 [16] = assay: Concentration at which the compound exibit more potency against MDA-MB-231 human […] cancer cells; type: functional, cell-based
MDA-MB-231 [17] = assay: Inhibitory activity against MDA-MB-231 cells; demonstarted high activity; type: functional, cell-based; details: Homo sapiens
Cancer cell lines [18] = assay: Potency exhibited by the compound against well-differentiated S2-013 human pancreatic cancer cell line; much more potent; type: functional, cell-based
PC-3 [19] = assay: Effective concentration against PC-3 human prostate cancer cells; type: functional, cell-based

For `CC(C)C[C@@H]1NC(=O)[C@H](Cc2ccccc2)NC(=O)[C@H](CC(C)C)NC(=O)[C@H](C(C)C)NC(=O)[C@H](CC(C)C)NC1=O` (cyclo(FLLVL)), the Activity (WM-115 [1]) was “Active”, the Activity (MDA-MB-231 [2]) was “Potent” and the Activity (PC-3 [3]) was “Not Very Active”.
With `CC(C)C[C@@H]1NC(=O)[C@H](Cc2ccccc2)NC(=O)[C@H](CC(C)C)N(C)C(=O)[C@H](C(C)C)NC(=O)[C@H](CC(C)C)NC1=O` (cyclo(FLLV[NMeL])) the Activity (MDA-MB-231 [4]) was “Active”.
In the case of `CC(C)C[C@@H]1NC(=O)[C@H](Cc2ccccc2)NC(=O)[C@H](CC(C)C)NC(=O)[C@H](C(C)C)N(C)C(=O)[C@H](CC(C)C)NC1=O` (cyclo(FLL[NMeV]L)), the Activity (MDA-MB-231 [4]) is reported as “Active”.
Work on `CC(C)C[C@@H]1NC(=O)[C@H](C(C)C)NC(=O)[C@H](CC(C)C)OC(=O)[C@H](CC(C)C)NC(=O)[C@H](Cc2ccccc2)NC1=O` (cyclo(FL[Hica(2S)]VL)) yielded an IC50 [5] of 27.4 µg/mL (≈ 46.7 µM).
For `CC(C)C[C@@H]1NC(=O)[C@H](C(C)C)NC(=O)[C@H](CC(C)C)N(C)C(=O)[C@H](CC(C)C)NC(=O)[C@H](Cc2ccccc2)NC1=O` (cyclo(FL[NMeL]VL)), the Activity (MDA-MB-231 [2]) was “Potent”.
For `CC(C)C[C@@H]1NC(=O)[C@H](C(C)C)NC(=O)[C@H](CC(C)C)NC(=O)[C@H](CC(C)C)N(C)C(=O)[C@H](Cc2ccccc2)NC1=O` (cyclo(F[NMeL]LVL)), the Activity (MDA-MB-231 [2]) was “Potent” and the Activity (PC-3 [6]) was “Not Very Active”.
With `CC(C)C[C@@H]1NC(=O)[C@H](CC(C)C)NC(=O)[C@H](Cc2ccccc2)N(C)C(=O)[C@H](CC(C)C)NC(=O)[C@H](C(C)C)NC1=O` (cyclo([NMeF]LLVL)) the Activity (MDA-MB-231 [2]) was “Potent” and the Activity (PC-3 [6]) was “Not Very Active”.
In the case of `CC(C)C[C@@H]1NC(=O)[C@H](CC(C)C)NC(=O)[C@H](Cc2ccc(Br)cc2)N(C)C(=O)[C@H](CC(C)C)NC(=O)[C@H](C(C)C)NC1=O` (cyclo([NMePhe(4-Br)]LLVL)), the Concentration (WM-115 [7]) is reported as 10 µM, the Activity (Cancer cell lines [8]) is reported as “Active” and the Activity (Cancer cell lines [9]) is reported as “Active”. The Activity (MDA-MB-231 [10]) was “Active” and the Activity (PC-3 [11]) was “Active”.
For `CC(C)C[C@@H]1NC(=O)[C@H](Cc2ccc(Br)cc2)NC(=O)[C@H](CC(C)C)NC(=O)[C@H](C(C)C)NC(=O)[C@H](CC(C)C)NC1=O` (cyclo([Phe(4-Br)]LLVL)), the Activity (PC-3 [12]) was “More potent” and the Activity (MDA-MB-231 [13]) was “Potent”.
Work on `CC(C)C[C@@H]1NC(=O)[C@H](Cc2ccc(Br)cc2)NC(=O)[C@H](CC(C)C)N(C)C(=O)[C@H](C(C)C)NC(=O)[C@H](CC(C)C)NC1=O` (cyclo([Phe(4-Br)]LLV[NMeL])) yielded a Concentration (WM-115 [7]) of 10 µM, a Concentration (PC-3 [14]) of 10 µM and a Concentration (Cancer cell lines [15]) of 10 µM. The Concentration (MDA-MB-231 [16]) was 10 µM and the Activity (Cancer cell lines [9]) was “Active”.
For `CC(C)C[C@@H]1NC(=O)[C@H](Cc2ccc(Br)cc2)NC(=O)[C@H](CC(C)C)NC(=O)[C@H](C(C)C)N(C)C(=O)[C@H](CC(C)C)NC1=O` (cyclo([Phe(4-Br)]LL[NMeV]L)), the Activity (MDA-MB-231 [4]) was “Active”.
In the case of `CC(C)C[C@@H]1NC(=O)[C@H](C(C)C)NC(=O)[C@H](CC(C)C)N(C)C(=O)[C@H](CC(C)C)NC(=O)[C@H](Cc2ccc(Br)cc2)NC1=O` (cyclo([Phe(4-Br)]L[NMeL]VL)), the Activity (MDA-MB-231 [2]) is reported as “Potent”, the Activity (MDA-MB-231 [17]) is reported as “Active” and the Activity (PC-3 [6]) is reported as “Not Very Active”.
For `CC(C)C[C@@H]1NC(=O)[C@H](C(C)C)NC(=O)[C@H](CC(C)C)NC(=O)[C@H](CC(C)C)N(C)C(=O)[C@H](Cc2ccc(Br)cc2)NC1=O` (cyclo([Phe(4-Br)][NMeL]LVL)), the Concentration (PC-3 [14]) was 10 µM, the Activity (Cancer cell lines [18]) was “Active” and the Activity (Cancer cell lines [8]) was “Active”. The Concentration (MDA-MB-231 [16]) was 10 µM and the EC50 (PC-3 [19]) was 7.5 µM.
